From US5262417A, “Antibacterial quinolone compounds” (The Upjohn Company, priority 1991, dated 1993)
Converted amounts (≈) assume the structure as drawn. “And” between values parts separate entries of the source, which are not always exact repeats. Equal entries are not always repeated. Where two headings read alike, the source gives them in different places.

Experiments:
Type in all cases: cell-based
[1] = tested on: Escherichia coli UC 51 (EC); assay: Dip disk (disk-diffusion) assay, disks loaded with 0.05 ml; conditions: Escherichia coli, UC51; 0.1 mcg/ml, 0.05 ml per disk; read-out: Growth Inhibition zone, EC
Protocol: (§1) The effectiveness of the subject compounds on bacteria were obtained by performing a dip disk assay. The antibacterial activity of the compounds was determined by the disk-diffusion method. Paper disks (12.7 mm) were loaded with 0.05 ml of drug solution prepared at a concentration of 0.1 mcg/ml; the disks were allowed to air dry. They were then applied to the surface of microorganism-seeded agar assay trays, which contained the bacterial strain Pseudomonas aeruginosa UC 95 (PA), Escherichia coli UC 51 (EC), Klebsiella pneumoniae UC 57 (KP), or Staphylococcus aureus UC 80 (SA). The assay trays were incubated overnight under aerobic condition to allow for the growth of the organisms. Zones of growth inhibition due to the action of the antibiotic were then measured to the nearest millimeter.
(§2) The effectiveness of additional compounds 5-9, (5-7 are Formula IAa compounds and 8 and 9 are Formula IAb compounds) on bacteria were obtained by performing a dip disk assay as described above. The antibacterial activity of the compounds was determined by the disk-diffusion method where the disks were loaded with 0.05 ml of drug solution prepared at a concentration of 1.0 mcg/ml; the disks were allowed to air dry.

[2] = tested on: Pseudomonas aeruginosa UC 95 (PA); assay: as above; conditions: Pseudomonas aeruginosa, UC95; 0.1 mcg/ml, 0.05 ml per disk; read-out: Growth Inhibition zone, PA
Protocol: as §1, §2

[3] = tested on: Staphylococcus aureus UC 80 (SA); assay: as above; conditions: Staphylococcus aureus, UC80, read-out: Growth Inhibition zone, SA
Protocol: as §1, §2

[4] = tested on: Acinetobacter calcoaceticus; assay: Minimum inhibitory concentration (MIC) by agar dilution; conditions: for MIC: Acinetobacter calcoaceticus
Summary of the method: (§3)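 Compounds were serially diluted into molten unsupplemented Mueller Hinton agar at 47° C and plates were poured. Bacteria grown overnight on MHA at 35° C were brought to 0.5 McFarland turbidity in Trypticase soy broth, diluted 1:20 and spot-inoculated with a Steers replicator.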

Citerobacter freundii = assay: as above
Summary of the method: as §3

Escherichia coli = assay: as above; conditions: for MIC: Escherichia coli
Summary of the method: as §3

Klebsiella pneumoniae = assay: as above
Summary of the method: as §3

Proteus penneri = assay: as above; conditions: for MIC: Proteus penneri
Summary of the method: as §3

Pseudomonas aeruginosa = assay: as above; conditions: for MIC: Pseudomonas aeruginosa
Summary of the method: as §3

Serratia marcescens = assay: as above; conditions: 20 h, read-out: MINIMUM INHIBITORY CONCENTRATION
Summary of the method: as §3

Staphylococcus aureus = assay: as above; conditions: for MIC: Staphylococcus aureus
Summary of the method: as §3

[5] = tested on: Staphylococcus epidermidis; assay: as above; conditions: 20 h
Summary of the method: as §3

Streptococcus faecalis = assay: as above; conditions: Enterococcus faecalis
Summary of the method: as §3

Streptococcus pneumoniae = assay: as above; conditions: for MIC: Streptococcus pneumoniae
Summary of the method: as §3

Streptococcus pyogenes = assay: as above; conditions: for MIC: Streptococcus pyogenes
Summary of the method: as §3

[6] = 20 h, read-out: MINIMUM INHIBITORY CONCENTRATION

Compound: O=C(O)c1cn(C2CC2)c2cc(N3CCNCC3)c(F)cc2c1=O [Ciprofloxacin, reference compound]
- zone of inhibition at 0.1 µg/mL [1]: 29 mm
- zone of inhibition at 0.1 µg/mL [2]: 38 mm
- zone of inhibition at 0.1 µg/mL [3]: 27 mm
- MIC ([4]; 20 h, read-out: MINIMUM INHIBITORY CONCENTRATION, Cult No. 12170, MHA): 0.25 mg/L (≈ 0.754 µM)
- MIC ([4]; UC12170, 20 h, read-out: Minimum Inhibitory Concentration, A. calcoaceticus UC 12170, Table CI): 0.25 mg/L (≈ 0.754 µM)
- MINIMUM INHIBITORY CONCENTRATION ([4]; Cult No. 12170, MHA): 0.25 mcg per ml and 0.125 mcg per ml
- MIC (Citerobacter freundii; [6]): < 0.008 mg/L
- MIC (Citerobacter freundii; Citrobacter freundii, UC3507, 20 h, read-out: Minimum Inhibitory Concentration): < 0.008 mg/L
- MINIMUM INHIBITORY CONCENTRATION (Escherichia coli; Cult No. 9855, MHA): 0.015 mcg per ml and 0.03 mcg per ml
- MINIMUM INHIBITORY CONCENTRATION (Escherichia coli; Cult No. 9952, MHA): 0.015 mcg per ml and < 0.008 mcg per ml
- MIC (Escherichia coli; 20 h, read-out: MINIMUM INHIBITORY CONCENTRATION, Cult No. 6674, MHA): 0.015 mg/L (≈ 0.0453 µM)
- MIC (Escherichia coli; 20 h, read-out: MINIMUM INHIBITORY CONCENTRATION, Cult No. 9451, MHA): 0.015 mg/L (≈ 0.0453 µM)
- MIC (Escherichia coli; 20 h, read-out: MINIMUM INHIBITORY CONCENTRATION, Cult No. 9855, MHA): 0.015 mg/L (≈ 0.0453 µM)
- MIC (Escherichia coli; 20 h, read-out: MINIMUM INHIBITORY CONCENTRATION, Cult No. 9952, MHA): 0.015 mg/L (≈ 0.0453 µM)
- MIC (Escherichia coli; UC6674, 20 h, E. coli UC 6674, Table CI, read-out: Minimum Inhibitory Concentration): 0.015 mg/L (≈ 0.0453 µM)
- MIC (Escherichia coli; UC9451, 20 h, E. coli UC 9451, Table CI, read-out: Minimum Inhibitory Concentration): 0.015 mg/L (≈ 0.0453 µM)
- MIC (Escherichia coli; UC9855, 20 h, E. coli UC 9855, Table CI, read-out: Minimum Inhibitory Concentration): 0.015 mg/L (≈ 0.0453 µM)
- MIC (Escherichia coli; UC9952, 20 h, E. coli UC 9952, Table CI, read-out: Minimum Inhibitory Concentration): < 0.008 mg/L
- MIC (Klebsiella pneumoniae; [6]): 0.03 mg/L (≈ 0.0905 µM)
- MIC (Klebsiella pneumoniae; UC12081, 20 h, read-out: Minimum Inhibitory Concentration): 0.03 mg/L (≈ 0.0905 µM)
- MINIMUM INHIBITORY CONCENTRATION (Proteus penneri; Cult No. 9679, MHA): 0.03 mcg per ml and 0.015 mcg per ml
- MIC (Proteus penneri; 20 h, read-out: MINIMUM INHIBITORY CONCENTRATION, Cult No. 9679, MHA): 0.015 mg/L (≈ 0.0453 µM)
- MIC (Proteus penneri; UC9679, 20 h, read-out: Minimum Inhibitory Concentration, P. penneri UC 9679, Table CI): 0.015 mg/L (≈ 0.0453 µM)
- MINIMUM INHIBITORY CONCENTRATION (Pseudomonas aeruginosa; Cult No. 9191, MHA): 0.25 mcg per ml and 0.125 mcg per ml
- MIC (Pseudomonas aeruginosa; 20 h, read-out: MINIMUM INHIBITORY CONCENTRATION, Cult No. 6676, MHA): 0.5 mg/L (≈ 1.51 µM)
- MIC (Pseudomonas aeruginosa; 20 h, read-out: MINIMUM INHIBITORY CONCENTRATION, Cult No. 9191, MHA): 0.25 mg/L (≈ 0.754 µM)
- MIC (Pseudomonas aeruginosa; 20 h, read-out: MINIMUM INHIBITORY CONCENTRATION, Cult No. 12120, MHA): 0.125 mg/L (≈ 0.377 µM)
- MIC (Pseudomonas aeruginosa; UC6676, 20 h, read-out: Minimum Inhibitory Concentration, Ps. aeruginosa UC 6676, Table CI): 0.5 mg/L (≈ 1.51 µM)
- MIC (Pseudomonas aeruginosa; UC9191, 20 h, read-out: Minimum Inhibitory Concentration, Ps. aeruginosa UC 9191, Table CI): 0.125 mg/L (≈ 0.377 µM)
- MIC (Pseudomonas aeruginosa; UC12120, 20 h, read-out: Minimum Inhibitory Concentration, Ps. aeruginosa UC 12120, Table CI): 0.125 mg/L (≈ 0.377 µM)
- MIC (Serratia marcescens): 0.06 mg/L (≈ 0.181 µM)
- MINIMUM INHIBITORY CONCENTRATION (Staphylococcus aureus; Cult No. 6685, MHA): 0.25 mcg per ml and 0.125 mcg per ml
- MINIMUM INHIBITORY CONCENTRATION (Staphylococcus aureus; Cult No. 9213, MHA): 1 mcg per ml and 0.5 mcg per ml
- MINIMUM INHIBITORY CONCENTRATION (Staphylococcus aureus; Cult No. 9218, MHA): 0.5 mcg per ml and 0.25 mcg per ml
- MIC (Staphylococcus aureus; 20 h, read-out: MINIMUM INHIBITORY CONCENTRATION, Cult No. 3665, MHA): 1 mg/L (≈ 3.02 µM)
- MIC (Staphylococcus aureus; 20 h, read-out: MINIMUM INHIBITORY CONCENTRATION, Cult No. 6685, MHA): 0.25 mg/L (≈ 0.754 µM)
- MIC (Staphylococcus aureus; 20 h, read-out: MINIMUM INHIBITORY CONCENTRATION, Cult No. 9213, MHA): 1 mg/L (≈ 3.02 µM)
- MIC (Staphylococcus aureus; 20 h, read-out: MINIMUM INHIBITORY CONCENTRATION, Cult No. 9218, MHA): 0.5 mg/L (≈ 1.51 µM)
- MIC (Staphylococcus aureus; 20 h, read-out: MINIMUM INHIBITORY CONCENTRATION, Cult No. 9271, MHA): 0.5 mg/L (≈ 1.51 µM)
- MIC (Staphylococcus aureus; UC6685, 20 h, read-out: Minimum Inhibitory Concentration, S. aureus UC 6685, Table CI): 0.25 mg/L (≈ 0.754 µM)
- MIC (Staphylococcus aureus; UC9213, 20 h, read-out: Minimum Inhibitory Concentration, S. aureus UC 9213, Table CI): 1 mg/L (≈ 3.02 µM)
- MIC (Staphylococcus aureus; UC9218, 20 h, read-out: Minimum Inhibitory Concentration, S. aureus UC 9218, Table CI): 0.5 mg/L (≈ 1.51 µM)
- MIC (Staphylococcus aureus; UC9271, 20 h, read-out: Minimum Inhibitory Concentration, S. aureus UC 9271, Table CI): 0.5 mg/L (≈ 1.51 µM)
- MIC ([5]; read-out: MINIMUM INHIBITORY CONCENTRATION): 0.125 mg/L (≈ 0.377 µM)
- MIC ([5]; read-out: Minimum Inhibitory Concentration): 0.06 mg/L (≈ 0.181 µM)
- MIC (Streptococcus faecalis; [6]): 0.5 mg/L (≈ 1.51 µM)
- MIC (Streptococcus faecalis; UC9217, 20 h, read-out: Minimum Inhibitory Concentration): 0.5 mg/L (≈ 1.51 µM)
- MINIMUM INHIBITORY CONCENTRATION (Streptococcus pneumoniae; Cult No. 41, MHA): 0.5 mcg per ml and 0.25 mcg per ml
- MIC (Streptococcus pneumoniae; 20 h, read-out: MINIMUM INHIBITORY CONCENTRATION, Cult No. 41, MHA): 0.5 mg/L (≈ 1.51 µM)
- MIC (Streptococcus pneumoniae; UC41, 20 h, read-out: Minimum Inhibitory Concentration, S. pneumoniae UC 41, Table CI): 0.5 mg/L (≈ 1.51 µM)
- MINIMUM INHIBITORY CONCENTRATION (Streptococcus pyogenes; Cult No. 152, MHA): 0.25 mcg per ml and 0.125 mcg per ml
- MIC (Streptococcus pyogenes; 20 h, read-out: MINIMUM INHIBITORY CONCENTRATION, Cult No. 152, MHA): 0.25 mg/L (≈ 0.754 µM)
- MIC (Streptococcus pyogenes; UC152, 20 h, read-out: Minimum Inhibitory Concentration, S. pyogenes UC 152, Table CI): 0.25 mg/L (≈ 0.754 µM)
